Data: patent US20230174488A1 (priority 2020, published 2023)
In brackets after ≈: the same amount, converted by molar mass.

Assays:
SARS-CoV-2 = assay: In vitro antiviral cell-based assay (live SARS-CoV-2 IFA) in Vero cells; conditions: Severe acute respiratory syndrome coronavirus 2, MOI ~0.0125, 24 hpi
[1] = Cytotoxicity (CC50) in Vero cells; conditions: African green monkey
in vitro = conditions: African green monkey
CYP 2C19 = CYP 2C19 (Homo sapiens, UniProt P33261); assay: CYP inhibition assay, 2C19
Chain of CYP 2C19 (P33261 whole entry): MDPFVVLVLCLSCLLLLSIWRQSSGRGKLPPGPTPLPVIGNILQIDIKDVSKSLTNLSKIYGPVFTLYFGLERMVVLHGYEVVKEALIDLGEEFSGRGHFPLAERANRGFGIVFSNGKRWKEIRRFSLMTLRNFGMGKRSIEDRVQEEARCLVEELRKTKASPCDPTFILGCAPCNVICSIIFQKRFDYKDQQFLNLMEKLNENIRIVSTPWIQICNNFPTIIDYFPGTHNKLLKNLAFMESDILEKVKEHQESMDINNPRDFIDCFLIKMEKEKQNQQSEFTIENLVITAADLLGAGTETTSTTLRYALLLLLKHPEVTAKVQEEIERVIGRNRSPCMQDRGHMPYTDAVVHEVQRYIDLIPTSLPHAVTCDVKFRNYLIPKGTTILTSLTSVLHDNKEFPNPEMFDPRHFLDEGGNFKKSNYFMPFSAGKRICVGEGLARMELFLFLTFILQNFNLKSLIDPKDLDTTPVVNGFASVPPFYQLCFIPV
Description: (§1) The following reagents/reactants were used in the assay: water was purified by ELGA Lab purification systems, buffer solution: PB (100 mM), MgCl2 (33 mM), organic solvents were AR or HPLC grade, CYP substrates: phenacetin (10 µM, 25 µL, 1A2), diclofenac (5 µM, 25 µL, 2C9), S-mephenytoin (30 µM, 75 µL, 2C19), dextromethorphan (5 µM, 12,5, 2D6), and midazolam (2 µM, 10 µL, 3A4), stock solutions were prepared in MeOH (20, 10, 20, 20, and 10 mM, respectively). Positive controls: α-naphthoflavone, sulfaphenazole, (+)-N-3-benzylnirvanol, quinidine, and ketoconazole, final concentration was 3 µM in MeOH (90 µL), stock solutions were prepared in DMSO (3 mM for all the inhibitors). Test compounds were evaluated using five conc. points at the range of 15-5,000 µM. […] Main procedure: working solution (100×) of the test compound and standard inhibitors were prepared, microsomes were pulled out of the -80° C. freezer to thaw on ice, labeled the date and put it back to the freezer immediately after use. Substrates (20 µL) and PB (20 µL) were added to corresponding wells and Blank wells, respectively. […] HLM working solution (158 µL) was added to all wells of the incubation plate. Plate was pre-warmed for about 10 min at 37° C. in a water bath, then NADPH (20 µL) was added to all incubation wells. CYPs were mixed and incubated for 10 min at 37° C. in a water bath. The reaction was terminated at the time point by adding a 400 µL cold stop solution (200 ng/mL tolbutamide and labetalol in ACN). Samples were centrifuged at 4000 rpm for 20 minutes to precipitate protein. Supernatant (200 µL) was transferred to 100 µL HPLC water and shaken for 10 min, then samples were subjected for LC/MS/MS analysis. XL fit was used to plot the percent of vehicle control vs the test compound concentrations, and for non-linear regression analysis of the data. IC50 values were determined using 3- or 4-parameter logistic equations.

CYP 2C9 = CYP 2C9 (Homo sapiens, UniProt P11712); assay: biochemical
Chain of CYP 2C9 (P11712 whole entry): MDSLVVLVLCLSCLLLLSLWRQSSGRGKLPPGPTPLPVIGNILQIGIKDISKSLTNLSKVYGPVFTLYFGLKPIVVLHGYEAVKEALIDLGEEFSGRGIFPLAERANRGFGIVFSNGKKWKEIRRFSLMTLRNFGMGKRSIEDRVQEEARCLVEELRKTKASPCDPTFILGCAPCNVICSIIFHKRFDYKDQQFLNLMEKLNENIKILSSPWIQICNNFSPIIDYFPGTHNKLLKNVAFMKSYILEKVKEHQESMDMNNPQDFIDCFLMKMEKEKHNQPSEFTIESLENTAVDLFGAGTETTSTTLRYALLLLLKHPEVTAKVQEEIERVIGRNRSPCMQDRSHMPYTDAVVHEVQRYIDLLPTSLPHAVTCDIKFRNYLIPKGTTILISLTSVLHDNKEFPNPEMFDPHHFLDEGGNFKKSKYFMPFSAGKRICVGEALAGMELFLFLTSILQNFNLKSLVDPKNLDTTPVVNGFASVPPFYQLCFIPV
Description: as §1

physchem = conditions: water, kinetic from dmso stock
[2] = mouse, plasma
PAMPA permeability assay = format: in vitro ADME; conditions: pH 7.4
Description: 2.6 g KH2PO4 and 18.5 g K3PHO4×3H2O were dissolved in 1000 mL of ultra-pure water, mixed thoroughly. The pH was adjusted to 7.40 ± 0.05, using either 1 M sodium hydroxide or 1 M hydrochloric acid. 0.2 mM working solution was prepared by diluting 10 mM stock solution with DMSO. 10 µM donor solution (5% DMSO) was prepared by diluting 20 µL of working solution with 380 µL PBS. 150 µL of 10 µM donor solutions to each well of the donor plate, whose PVDF membrane was precoated with 5 µL of 1% lecithin/dodecane mixture. Duplicates were prepared. 300 µL of PBS was added to each well of the PTFE acceptor plate. The donor plate and acceptor plate were combined together and incubated for 4 h at room temperature with shaking at 300 rpm. […] Preparation of acceptor sample: the plate was removed from the incubator. 270 µL solution was transferred from each acceptor well and mixed with 130 µL ACN (containing internal standard) as acceptor sample. […] Acceptor samples and donor samples were all analyzed by LC-MS/MS.

CYP 1A2 = biological target: T1, CYP 1A2 (Homo sapiens, UniProt P05177); assay: CYP inhibition assay, 1A2
T1 sequence (P05177 1-516): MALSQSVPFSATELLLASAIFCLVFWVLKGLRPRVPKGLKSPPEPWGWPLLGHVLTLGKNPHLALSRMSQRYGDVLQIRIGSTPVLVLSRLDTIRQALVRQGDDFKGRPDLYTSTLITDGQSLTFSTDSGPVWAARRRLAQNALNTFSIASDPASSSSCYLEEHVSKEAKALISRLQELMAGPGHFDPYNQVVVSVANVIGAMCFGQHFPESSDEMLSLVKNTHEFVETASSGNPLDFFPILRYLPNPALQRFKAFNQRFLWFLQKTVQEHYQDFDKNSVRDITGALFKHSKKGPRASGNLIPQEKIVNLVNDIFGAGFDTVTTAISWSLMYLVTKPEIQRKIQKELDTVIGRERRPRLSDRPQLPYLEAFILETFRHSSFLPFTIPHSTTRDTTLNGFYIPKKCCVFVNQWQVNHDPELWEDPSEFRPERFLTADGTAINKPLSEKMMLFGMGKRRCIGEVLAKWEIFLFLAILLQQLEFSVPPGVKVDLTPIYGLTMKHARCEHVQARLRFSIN
Description: as §1

[3] = plasma
Plasma stability, mice = format: in vitro ADME; conditions: mouse
Description: (§2) Propantheline bromide was used as a reference compound in this assay. The pooled frozen plasma was thawed in a water bath at 37° C. prior to experiment. Plasma was centrifuged at 4000 rpm for 5 min and the clots were removed if any. The pH will be adjusted to 7.4 ± 0.1 if required.
(§3) Preparation of compounds: 1 mM intermediate solution was prepared by diluting 10 µL of the stock solution with 90 µL DMSO; 1 mM intermediate of positive control Propantheline was prepared by diluting 10 µL of the stock solution with 90 µL ultrapure water. For test compounds, 100 µM dosing solution was prepared by diluting 10 µL of the intermediate solution (1 mM) with 90 µL DMSO. […] 98 µL of blank plasma was spiked with 2 µL of dosing solution (100 µM) to achieve 2 µM of the final concentration in duplicate and samples were Incubated at 37° C. in a water bath. […] Centrifuged sample plates at 4,000 rpm for 10 min. An aliquot of supernatant (50 µL) was transferred from each well and mixed with 100 µL ultra-pure water. The samples were shaken at 800 rpm for about 10 min before submitting to LC-MS/MS analysis. The % remaining of test compound after incubation in plasma was calculated using following equation:
(§4) where PAR is the peak area ratio of analyte versus internal standard (IS).

CYP 3A4 = CYP 3A4 (Homo sapiens, UniProt P08684); assay: CYP inhibition assay, 3A4
Chain of CYP 3A4 (P08684 whole entry): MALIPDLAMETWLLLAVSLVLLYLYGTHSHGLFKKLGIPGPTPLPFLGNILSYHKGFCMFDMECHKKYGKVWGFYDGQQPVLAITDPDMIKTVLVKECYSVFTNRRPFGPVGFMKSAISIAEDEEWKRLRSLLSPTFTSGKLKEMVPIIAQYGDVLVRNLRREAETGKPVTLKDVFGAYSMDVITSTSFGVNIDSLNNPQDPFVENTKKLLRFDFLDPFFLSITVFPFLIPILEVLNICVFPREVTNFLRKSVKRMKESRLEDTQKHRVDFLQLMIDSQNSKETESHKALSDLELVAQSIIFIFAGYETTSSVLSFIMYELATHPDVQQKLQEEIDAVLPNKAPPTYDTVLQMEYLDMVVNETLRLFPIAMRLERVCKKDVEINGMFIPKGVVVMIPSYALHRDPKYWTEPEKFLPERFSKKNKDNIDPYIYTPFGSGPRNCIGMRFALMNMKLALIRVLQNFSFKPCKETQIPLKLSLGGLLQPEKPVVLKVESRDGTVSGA
Description: as §1

SARS-CoV-2 M^PRO = SARS-CoV-2 M^PRO (Severe acute respiratory syndrome coronavirus 2, UniProt P0DTD1); assay: biochemical; format: biochemical; conditions: In vitro potency data; 30 min pre-incubation, 25 nM M^pro, 25 µM substrate; read-out: IC50
Plasma stability, human = format: in vitro ADME; conditions: pH 7.4
Description: as §2, §3, §4

CYP 2D6 = CYP 2D6 (Homo sapiens, UniProt P10635); assay: CYP inhibition assay, 2D6
Chain of CYP 2D6 (P10635 whole entry): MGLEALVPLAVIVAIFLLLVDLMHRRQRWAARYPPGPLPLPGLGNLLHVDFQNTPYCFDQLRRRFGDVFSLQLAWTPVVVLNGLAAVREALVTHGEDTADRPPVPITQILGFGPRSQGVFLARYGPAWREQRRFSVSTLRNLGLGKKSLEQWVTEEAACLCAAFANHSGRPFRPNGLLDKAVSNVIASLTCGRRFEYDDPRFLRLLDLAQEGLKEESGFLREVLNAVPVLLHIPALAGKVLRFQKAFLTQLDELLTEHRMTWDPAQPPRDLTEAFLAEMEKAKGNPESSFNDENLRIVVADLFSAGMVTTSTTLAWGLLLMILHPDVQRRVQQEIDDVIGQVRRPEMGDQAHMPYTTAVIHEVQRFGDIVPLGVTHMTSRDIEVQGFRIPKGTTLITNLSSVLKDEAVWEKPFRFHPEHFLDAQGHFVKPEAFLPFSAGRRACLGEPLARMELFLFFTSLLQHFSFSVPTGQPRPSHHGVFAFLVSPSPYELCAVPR
Description: as §1

SMILES | EC50 (SARS-CoV-2) [µM] | CC50 at 24 h [1] [µM] | CC50 at 24 h (in vitro) [µM] | IC50 (CYP 2C19) [µM] | IC50 (CYP 2C9) [µM] | solubility kinetic (physchem) [µM] | PPB, mice, % Bound [2] [%] | PAMPA, Mean Pe (PAMPA permeability assay; 4 h, 10 µM) [×10⁻⁶ cm/s] | Papp at 4 h, 10 µM (PAMPA permeability assay) [×10⁻⁶ cm/s] | IC50 (CYP 1A2) [µM] | PPB, human, % Bound [3] [%] | Stability in plasma (in words) (Plasma stability, mice) | Plasma stability, T½, min, mice (Plasma stability, mice; 2 µM, pH 7.4) [h] | half-life at 2 µM (Plasma stability, mice; pH 7.4) [h] | IC50 (CYP 3A4) [µM] | IC50 (SARS-CoV-2 M^PRO) [µM] | Plasma stability, T½, min, human (Plasma stability, human; 2 µM) [h] | half-life at 2 µM (Plasma stability, human) [h] | IC50 (CYP 2D6) [µM]
Cc1cccc(C)c1OCC(=O)N[C@@H](Cc1ccccc1)[C@@H](O)C[C@H](Cc1ccccc1)NC(=O)[C@H](C(C)C)N1CCCNC1=O [Lopinavir, lopinavir, reference compound] | 13.9 | > 50 |  |  |  |  |  |  |  |  |  |  |  |  |  |  |  |  | 
O=C(NC1CCC(F)(F)CC1)[C@@H](c1cncnc1)N(C(=O)[C@@H](F)Cl)c1ccc(-c2cncs2)cc1 (single isomer, unassigned) [INSCoV-614(1B), 2-Chloro-N-(2-((4,4-difluorocyclohexyl)amino)-2-oxo-1-(pyrimidin-5-yl)ethyl)-2-fluoro-N-(4-(thiazol-5-yl)phenyl)acetamide] | 2.23 |  | > 25 | 9.5 | 15.6 | 164 (≈ 85.9 µg/mL) | 83.78 | 0.188 | 0.188 | 24.3 | 70.59 | significantly improved stability in plasma | >4.818 | > 4.82 | 1.45 | 0.06 | >4.818 | > 4.82 | 6.5
